In the case of `O=C(O[C@@H]1Cc2c(O)cc(O)cc2O[C@@H]1c1cc(O)c(O)c(O)c1)c1cc(O)c(O)c(O)c1`, the solubility (mole fraction) (in 2-butoxyethanol, 278.15 K) is reported as 0.00142, the solubility (mole fraction) (in 2-butoxyethanol, 288.15 K) is reported as 0.00195 and the solubility (mole fraction) (in 2-butoxyethanol, 298.15 K) is reported as 0.00268. It also gave a solubility (mole fraction) (in 2-butoxyethanol, 308.15 K) of 0.00384, a solubility (mole fraction) (in 2-butoxyethanol, 318.15 K) of 0.00559 and a solubility (mole fraction) (in 2-ethoxyethanol, 278.15 K) of 0.00904. It also gave a solubility (mole fraction) (in 2-ethoxyethanol, 288.15 K) of 0.0151, a solubility (mole fraction) (in 2-ethoxyethanol, 298.15 K) of 0.0272 and a solubility (mole fraction) (in 2-ethoxyethanol, 308.15 K) of 0.0436. For the same compound, the solubility (mole fraction) (in 2-ethoxyethanol, 318.15 K) was 0.0701, the solubility (mole fraction) (in 2-methoxyethanol, 278.15 K) was 0.0158 and the solubility (mole fraction) (in 2-methoxyethanol, 288.15 K) was 0.0254. For the same compound, the solubility (mole fraction) (in 2-methoxyethanol, 298.15 K) was 0.0365, the solubility (mole fraction) (in 2-methoxyethanol, 308.15 K) was 0.0558 and the solubility (mole fraction) (in 2-methoxyethanol, 318.15 K) was 0.0815. For the same compound, the solubility (mole fraction) (in 2-propoxyethanol, 278.15 K) was 0.00275, the solubility (mole fraction) (in 2-propoxyethanol, 288.15 K) was 0.00352 and the solubility (mole fraction) (in 2-propoxyethanol, 298.15 K) was 0.00456. It also gave a solubility (mole fraction) (in 2-propoxyethanol, 308.15 K) of 0.0059, a solubility (mole fraction) (in 2-propoxyethanol, 318.15 K) of 0.00809 and a solubility (mole fraction) (in ethanol, 278.15 K) of 5.41e-05. For the same compound, the solubility (mole fraction) (in ethanol, 288.15 K) was 9.24e-05, the solubility (mole fraction) (in ethanol, 298.15 K) was 0.000175 and the solubility (mole fraction) (in ethanol, 308.15 K) was 0.000387. It also gave a solubility (mole fraction) (in ethanol, 318.15 K) of 0.000714, a solubility (mole fraction) (in isopropanol, 278.15 K) of 6e-06 and a solubility (mole fraction) (in isopropanol, 288.15 K) of 1.67e-05. For the same compound, the solubility (mole fraction) (in isopropanol, 298.15 K) was 5.53e-05, the solubility (mole fraction) (in isopropanol, 308.15 K) was 0.000194 and the solubility (mole fraction) (in isopropanol, 318.15 K) was 0.000481. The solubility (mole fraction) (in methanol, 288.15 K) was 1.65e-05, the solubility (mole fraction) (in methanol, 298.15 K) was 5.8e-05 and the solubility (mole fraction) (in methanol, 308.15 K) was 0.000184. The solubility (mole fraction) (in methanol, 318.15 K) was 0.000612, the solubility (mole fraction) (in n-butanol, 288.15 K) was 1.95e-05 and the solubility (mole fraction) (in n-butanol, 298.15 K) was 5.41e-05. For the same compound, the solubility (mole fraction) (in n-butanol, 308.15 K) was 0.000136, the solubility (mole fraction) (in n-butanol, 318.15 K) was 0.000349 and the solubility (mole fraction) (in n-hexanol, 278.15 K) was 6.8e-07. It also gave a solubility (mole fraction) (in n-hexanol, 288.15 K) of 3.87e-06, a solubility (mole fraction) (in n-hexanol, 298.15 K) of 1.79e-05 and a solubility (mole fraction) (in n-hexanol, 308.15 K) of 5.35e-05. The solubility (mole fraction) (in n-hexanol, 318.15 K) was 0.000138, the solubility (mole fraction) (in n-pentanol, 278.15 K) was 9.9e-07 and the solubility (mole fraction) (in n-pentanol, 288.15 K) was 5.7e-06. It also gave a solubility (mole fraction) (in n-pentanol, 298.15 K) of 3.01e-05, a solubility (mole fraction) (in n-pentanol, 308.15 K) of 8.6e-05 and a solubility (mole fraction) (in n-pentanol, 318.15 K) of 0.000187. For the same compound, the solubility (mole fraction) (in n-propanol, 278.15 K) was 1.22e-05, the solubility (mole fraction) (in n-propanol, 288.15 K) was 3.79e-05 and the solubility (mole fraction) (in n-propanol, 298.15 K) was 9.06e-05. For the same compound, the solubility (mole fraction) (in n-propanol, 308.15 K) was 0.000195, the solubility (mole fraction) (in n-propanol, 318.15 K) was 0.000656 and the solubility (mole fraction) (in sec-butanol, 278.15 K) was 5.04e-06. It also gave a solubility (mole fraction) (in sec-butanol, 288.15 K) of 2.12e-05, a solubility (mole fraction) (in sec-butanol, 298.15 K) of 4.97e-05 and a solubility (mole fraction) (in sec-butanol, 308.15 K) of 0.00014. It also gave a solubility (mole fraction) (in sec-butanol, 318.15 K) of 0.000636.
